Counter-ions that a name gives are not always drawn.
How the values were obtained:
Format in all cases: biochemical
[1] = target: T1, recombinant human VAP-1 (Homo sapiens, UniProt Q16853); assay: Activity on recombinant human VAP-1, HRP-coupled Amplex Red hydrogen peroxide assay, benzylamine substrate; details: 30 min incubation at 37° C., 1 mM benzylamine, read-out: Inhibitory Activity (IC50, nM) human VAP-1
T1 construct: purchased R&D systems
T1 sequence (Q16853 1-763): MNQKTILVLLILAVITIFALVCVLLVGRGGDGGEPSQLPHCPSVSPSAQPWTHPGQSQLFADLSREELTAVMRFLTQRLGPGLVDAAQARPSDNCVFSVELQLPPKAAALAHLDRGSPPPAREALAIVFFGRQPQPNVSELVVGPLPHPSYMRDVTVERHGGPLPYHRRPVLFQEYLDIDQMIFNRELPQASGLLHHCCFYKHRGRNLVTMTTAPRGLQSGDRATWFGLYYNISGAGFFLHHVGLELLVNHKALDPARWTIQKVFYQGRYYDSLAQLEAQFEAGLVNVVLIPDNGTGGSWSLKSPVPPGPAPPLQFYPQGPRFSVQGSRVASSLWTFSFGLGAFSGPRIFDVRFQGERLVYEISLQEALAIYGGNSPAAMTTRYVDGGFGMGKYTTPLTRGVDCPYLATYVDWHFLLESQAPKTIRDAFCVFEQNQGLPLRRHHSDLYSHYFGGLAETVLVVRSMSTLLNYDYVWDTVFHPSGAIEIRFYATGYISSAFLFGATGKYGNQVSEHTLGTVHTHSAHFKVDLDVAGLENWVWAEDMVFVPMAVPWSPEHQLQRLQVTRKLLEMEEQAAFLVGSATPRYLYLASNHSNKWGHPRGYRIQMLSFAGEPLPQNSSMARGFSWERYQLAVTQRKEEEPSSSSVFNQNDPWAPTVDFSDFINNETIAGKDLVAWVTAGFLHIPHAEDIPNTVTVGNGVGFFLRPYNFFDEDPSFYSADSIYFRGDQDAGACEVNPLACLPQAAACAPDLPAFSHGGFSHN
Protocol: (§1) The compounds according to the present technology were evaluated in terms of activity on recombinant human VAP-1 (R&D systems) by measuring the level of hydrogen peroxide in horseradish peroxidase (HRP)-coupled reaction using Amplex Red Hydrogen Peroxide Assay Kit (Molecular Probes, Invitrogen, USA). The experiment was carried out at room temperature using benzylamine as a substrate. In the HRP-coupled reaction, hydrogen peroxide oxidation of 10-acetyl-3,7-dihydroxyphenoxazine (Amplex Red reagent) produces resorufin, which is a highly fluorescent compound. Briefly, the test compound was dissolved in dimethyl sulfoxide (DMSO) at a concentration of 20 mM. The dose-response assessment was made by 1:3 serial dilution in DMSO, thereby creating a 8 point curve. The concentration of the upper part was controlled according to the efficacy of the compounds, followed by dilution with a reaction buffer solution to obtain a final DMSO concentration of less than 1%. To each well of a 96 black well plate, human VAP-1 purified in 50 mM sodium phosphate buffer solution (pH7.4) was added. The test compounds dissolved in DMSO were incubated with the human VAP-1 enzymes at 37° C. for 30 minutes. After 30-minute incubation, each well was added with a reaction mixture containing 200 uM Amplex Red reagent prepared from 50 mM sodium phosphate buffer solution (pH 7.4), 1 mM benzylamine, and 1 U/mL HRP. Fluorescence intensity was measured at several time points during 1-2 hours using a microplate reader (Flexstation3, Molecular Devices) under the wavelength condition exciting at 544 nm and reading the emission at 590 nm. The inhibitory effect of the compounds was measured as a decrease (%) in the signal rate as compared to the control group without any inhibitor (only diluted DMSO). Data was fixed to a logistic model with four variables and IC50 value was calculated using GraphPad Prism program.

[2] = target: T2, recombinant human MAO-A (monoamine oxidase-A) (Homo sapiens, UniProt P21397); assay: Activity on recombinant human MAO-A, method similar to VAP-1 assay, 0.5 mM tyramine substrate; details: read-out: Inhibitory Activity (IC50, nM) MAO-A
T2 construct: purchased Sigma-Aldrich
T2 sequence (P21397 1-527): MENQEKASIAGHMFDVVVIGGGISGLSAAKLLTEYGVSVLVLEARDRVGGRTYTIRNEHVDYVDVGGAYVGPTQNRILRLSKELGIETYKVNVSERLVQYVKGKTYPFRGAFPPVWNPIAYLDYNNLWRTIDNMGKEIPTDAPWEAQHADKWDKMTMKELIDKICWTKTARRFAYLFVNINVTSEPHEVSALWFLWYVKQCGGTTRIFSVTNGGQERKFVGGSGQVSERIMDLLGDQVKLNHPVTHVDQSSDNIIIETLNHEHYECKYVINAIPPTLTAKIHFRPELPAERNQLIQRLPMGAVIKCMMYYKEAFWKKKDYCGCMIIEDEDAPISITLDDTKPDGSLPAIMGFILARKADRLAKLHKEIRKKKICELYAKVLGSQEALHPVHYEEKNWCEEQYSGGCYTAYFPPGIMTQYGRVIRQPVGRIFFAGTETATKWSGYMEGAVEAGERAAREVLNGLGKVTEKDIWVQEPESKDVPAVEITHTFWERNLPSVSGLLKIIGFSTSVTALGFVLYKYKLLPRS
Protocol: as §1
(§2) In addition, the compounds according to the present technology were evaluated in terms of activity on a recombinant human MAO-A (monoamine oxidase-A, Sigma-Aldrich) and a recombinant human MAO-B(monoamine oxidase-B, Sigma-Aldrich) by using as substrates, 0.5 mM tyramine and 1 mM benzylamine, respectively, with a method similar to the activity evaluation method for recombinant human VAP-1. The compounds according to the present technology were also evaluated in terms of activity on a recombinant human DAO (diamine oxidase, R&D systems) by using as a substrate 1 mM putrescine with a method similar to the activity evaluation method for recombinant human VAP-1.

[3] = target: T3, recombinant human MAO-B (monoamine oxidase-B) (Homo sapiens, UniProt P27338); assay: Activity on recombinant human MAO-B, method similar to VAP-1 assay, 1 mM benzylamine substrate; details: read-out: Inhibitory Activity (IC50, nM) MAO-B
T3 construct: purchased Sigma-Aldrich
T3 sequence (P27338 1-520): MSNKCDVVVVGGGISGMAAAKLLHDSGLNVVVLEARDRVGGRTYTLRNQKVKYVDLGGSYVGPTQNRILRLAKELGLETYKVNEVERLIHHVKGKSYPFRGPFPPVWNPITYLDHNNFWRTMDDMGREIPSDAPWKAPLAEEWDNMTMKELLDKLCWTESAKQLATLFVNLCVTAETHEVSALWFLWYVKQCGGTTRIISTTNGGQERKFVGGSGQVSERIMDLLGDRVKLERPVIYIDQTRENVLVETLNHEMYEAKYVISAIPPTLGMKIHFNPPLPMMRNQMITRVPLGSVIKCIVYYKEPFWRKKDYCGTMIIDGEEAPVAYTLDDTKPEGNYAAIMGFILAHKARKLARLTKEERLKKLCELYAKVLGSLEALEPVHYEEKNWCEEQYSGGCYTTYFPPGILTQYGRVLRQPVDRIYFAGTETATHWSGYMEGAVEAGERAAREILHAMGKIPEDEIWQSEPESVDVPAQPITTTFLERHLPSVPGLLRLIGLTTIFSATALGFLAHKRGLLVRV
Protocol: as §1, §2

[4] = target: T4, recombinant human DAO (diamine oxidase) (Homo sapiens, UniProt P19801); assay: Activity on recombinant human DAO, method similar to VAP-1 assay, 1 mM putrescine substrate; details: read-out: Inhibitory Activity (IC50, nM) DAO
T4 construct: purchased R&D systems
T4 sequence (P19801 20-751): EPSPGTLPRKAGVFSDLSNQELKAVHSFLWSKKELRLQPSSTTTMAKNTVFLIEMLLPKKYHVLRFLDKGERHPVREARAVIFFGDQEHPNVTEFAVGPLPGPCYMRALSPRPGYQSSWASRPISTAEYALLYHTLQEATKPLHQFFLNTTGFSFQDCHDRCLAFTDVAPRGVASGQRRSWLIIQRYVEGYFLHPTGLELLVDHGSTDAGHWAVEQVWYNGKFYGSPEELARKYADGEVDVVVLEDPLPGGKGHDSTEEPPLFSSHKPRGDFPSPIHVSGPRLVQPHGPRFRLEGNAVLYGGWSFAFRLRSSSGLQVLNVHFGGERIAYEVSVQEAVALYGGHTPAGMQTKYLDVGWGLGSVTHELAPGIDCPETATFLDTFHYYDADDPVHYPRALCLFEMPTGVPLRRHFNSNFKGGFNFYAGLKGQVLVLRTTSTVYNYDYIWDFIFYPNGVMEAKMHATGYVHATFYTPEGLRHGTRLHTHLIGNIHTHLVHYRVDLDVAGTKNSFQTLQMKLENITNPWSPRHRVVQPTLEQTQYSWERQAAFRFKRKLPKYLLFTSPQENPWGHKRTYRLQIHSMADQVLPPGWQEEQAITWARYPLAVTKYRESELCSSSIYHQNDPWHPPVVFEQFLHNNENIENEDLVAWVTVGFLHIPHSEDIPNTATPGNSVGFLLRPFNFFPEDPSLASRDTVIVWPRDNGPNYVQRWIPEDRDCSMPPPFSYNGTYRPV
Protocol: as §1, §2

SMILES | IC50 [1] [nM] | IC50 [2] [nM] | IC50 [3] [nM] | IC50 [4] [nM]
CN(C)c1ccc(C#Cc2ccn3c(=O)n(CC(CN)=C(F)F)nc3c2)cn1 [Example 57, 2-[2-(aminomethyl)-3,3-difluoro-allyl]-7-[2-[6-(dimethylamino)-3-pyridyl]ethynyl]-[1,2,4]triazolo[4,3-a]pyridin-3-one trifluoroacetate] | 0.3 | > 100000 | 6200 | 120
NC/C(=C\F)Cn1nc2cc(-c3c[nH]c4ncccc34)ccn2c1=O [Example 35, 2-[(2E)-2-(aminomethyl)-3-fluoroprop-2-en-1-yl]-7-(1H-pyrrolo[2,3-b]pyridin-3-yl)[1,2,4]triazolo[4,3-a]pyridin-3(2H)-one hydrochloride] | 0.2 | > 100000 | 24 | 0.5
NCC(Cn1nc2cc(C#Cc3cnc4c(c3)OCCN4)ccn2c1=O)=C(F)F [Example 61, 2-[2-(aminomethyl)-3,3-difluoro-allyl]-7-[2-(3,4-dihydro-2H-pyrido[3,2-b][1,4]oxazin-7-yl)ethynyl]-[1,2,4]triazolo[4,3-a]pyridin-3-one ditrifluoroacetate] | 0.6 | > 100000 | 37000 | 220
NCC(Cn1nc2cc(C#Cc3cnc4c(c3)NCCO4)ccn2c1=O)=C(F)F [Example 60, 2-[2-(aminomethyl)-3,3-difluoro-allyl]-7-[2-(2,3-dihydro-1H-pyrido[2,3-b][1,4]oxazin-7-yl)ethynyl]-[1,2,4]triazolo[4,3-a]pyridin-3-one ditrifluoroacetate] | 0.4 | > 100000 | > 100000 | 220
NC/C(=C\F)Cn1nc2cc(-c3cccc(-c4noc(C5CC5)n4)c3)ccn2c1=O [Example 28, 2-[(2E)-2-(aminomethyl)-3-fluoroprop-2-en-1-yl]-7-[3-(5-cyclopropyl-1,2,4-oxadiazol-3-yl)phenyl][1,2,4]triazolo[4,3-a]pyridin-3(2H)-one hydrochloride] | 0.5 | > 100000 | 290 | 5

More lines, in order of falling IC50 [1], values ahead:

IC50 [1] [nM] | IC50 [2] [nM] | IC50 [3] [nM] | IC50 [4] [nM] | SMILES
36 | > 100000 | > 100000 | 26000 | NCC(Cn1nc2ccc(Br)cn2c1=O)=C(F)F [Example 46, 2-[2-(aminomethyl)-3,3-difluoro-allyl]-6-bromo-[1,2,4]triazolo[4,3-a]pyridin-3-one trifluoroacetate]
2 | > 100000 | 1450 | < 100 | NC/C(=C\F)Cn1nc2ccc(-c3ccc(-c4nc[nH]n4)cc3)cn2c1=O [Example 5, 2-[(2E)-2-(aminomethyl)-3-fluoroprop-2-en-1-yl]-6-[4-(1H-1,2,4-triazol-3-yl)phenyl][1,2,4]triazolo[4,3-a]pyridin-3(2H)-one trifluoroacetate]
0.6 | > 100000 | > 10000 | 14 | NC/C(=C\F)Cn1nc2cc(-c3ccc(C(=O)N4CCOCC4)cc3)ccn2c1=O [Example 24, 2-[(2E)-2-(aminomethyl)-3-fluoroprop-2-en-1-yl]-7-[4-(morpholin-4-ylcarbonyl)phenyl][1,2,4]triazolo[4,3-a]pyridin-3(2H)-one hydrochloride]
0.4 | > 100000 | 5100 | 1800 | CCn1cc(-c2ccn3c(=O)n(CC(CN)=C(F)F)nc3c2)cn1 [Example 55, 2-[2-(aminomethyl)-3,3-difluoro-allyl]-7-(1-ethylpyrazol-4-yl)-[1,2,4]triazolo[4,3-a]pyridin-3-one trifluoroacetate]
0.3 | 66000 | 3.8 | 20 | NC/C(=C\F)Cn1nc2cc(-c3ccc4c(c3)OCO4)ccn2c1=O [Example 36, 2-[(2E)-2-(aminomethyl)-3-fluoroprop-2-en-1-yl]-7-(1,3-benzodioxol-5-yl)[1,2,4]triazolo[4,3-a]pyridin-3(2H)-one hydrochloride]
0.1 | 96000 | 1100 | 0.2 | NC/C(=C\F)Cn1nc2cc(-c3ccc4nn[nH]c4c3)ccn2c1=O [Example 39, 2-[(2E)-2-(aminomethyl)-3-fluoroprop-2-en-1-yl]-7-(1H-benzotriazol-6-yl)[1,2,4]triazolo[4,3-a]pyridin-3(2H)-one hydrochloride]

— patent publication US11091479B2, “Triazolopyridin-3-ones or their salts and pharmaceutical compositions comprising the same” (YUHAN CORPORATION, priority 2018, dated 2021)
